This is an account of results in publication PMC6065317, “Rice Defensin OsAFP1 is a New Drug Candidate against Human Pathogenic Fungi” (Scientific Reports, 2018).

Where a SMILES comes first, the peptide text is derived from it.

Assay [1] concerns C. albicans CAI4 (IFM 61937). To be noted: Table 2; synthetic partial peptides against C. albicans, OD650; tested up to 25 μM. The procedure: Seven microbial strains were used for OsAFP1 antimicrobial activity testing. P. gingivalis ATCC 33277 cells were cultured in modified Gifu anaerobic medium (GAM) (Nissui, Tokyo, Japan) in an anaerobic jar (Mitsubishi Gas Chemical, Tokyo, Japan) in the presence of a deoxygenating regent (AnaeroPack, Mitsubishi Gas Chemical) for 48 h at 37 °C. E. coli K-12 NBRC3301, S. mutans JCM 5705, S. aureus NBRC 12732, and P. acnes JCM 6473 cells were cultured in Luria-Bertani (LB) broth, brain-heart infusion broth (Nissui), trypticase soy broth (BD Biosciences, Franklin Lakes, NJ, USA), and GAM broth (Nissui), respectively, under facultative anaerobic conditions for 4–24 h at 37 °C. C. albicans CAI4 (IFM 61937) cells were cultured in 0.5 × potato dextrose broth (PDB) supplemented with 25 μg/ml of uridine under facultative anaerobic conditions for 14 h at 30 °C. S. cerevisiae BY4742 and S288C cells were cultured in 0.5 × PDB supplemented with 30 μg/ml of uridine, histidine, and lysine and 60 μg/ml of leucine under facultative anaerobic conditions for 14 h at 27 °C. These microbial strains were purchased from the American Type Culture Collection (Manassas, VA, USA), National Institute of Technology and Evaluation (Tokyo, Japan), RIKEN BioResource Center (Tsukuba, Japan), Medical Mycology Research Center (Chiba, Japan), and GE Healthcare (Little Chalfont, UK).
Antifungal assays to determine the MIC of OsAFP1 were performed as follows. Fungal cells (1 × 10^5 cells) were suspended in 100 μl of the appropriate medium containing 0–32 μM OsAFP1 in 96-well Costar cell culture plates. After incubation, OD650 was measured using a plate reader. […] In those cases, the cultures were plated on agar plates (0.5 × PDB), and the peptide concentration at which viable cell numbers were 1% or less than that in the control culture was considered the MIC. GraphPad Prism version 6.00 for Macintosh (GraphPad Software, La Jolla, CA, USA) was used to calculate IC50 values. Experiments were independently repeated at least three times. Detailed growth conditions for each fungus are provided in the “Microorganisms and culture conditions” section above.

For a further assay, the system named is Candida species. To be noted: existing antifungal drugs; cited from earlier work. Here is the method:
In the present study, functional analyses of the antifungal activity of the rice-derived defensin OsAFP1 were performed. […] Since MIC values of the existing antifungal drugs, such as fluconazole, amphotericin B, and caspofungin, are in the 0.01–1 μM range[48], further engineering to enhance its function may be required before OsAFP1 can be used as a drug. On the other hand, OsAFP1 was extremely stable upon heat and serum treatments and exerted its antifungal activity by inducing apop ...

`CC(C)[C@H](N)C(=O)N[C@@H](CO)C(=O)N[C@@H](CO)C(=O)N[C@@H](CC(N)=O)C(=O)N[C@@H](CC(N)=O)C(=O)N[C@@H](CS)C(=O)N[C@@H](C)C(=O)N[C@@H](CC(N)=O)C(=O)N[C@H](C(=O)O)C(C)C` [compound 3] (H-VSSNNCANV-OH) gave an IC50 in assay [1] greater than 25 µM.

On to caspofungin, for which the MIC values in the assay with Candida species was 0.01 to 1 µM.

Molecule `NCCCC[C@H](NC(=O)[C@H](CS)NC(=O)[C@H](CCC(=O)O)NC(=O)CNC(=O)[C@H](CC(=O)O)NC(=O)[C@@H]1CCCN1C(=O)[C@@H](N)Cc1ccccc1)C(=O)N[C@@H](CO)C(=O)N[C@@H](Cc1c[nH]cn1)C(=O)NCC(=O)O` [compound 6] (H-FPDGECKSHG-OH) returned an IC50 in assay [1] greater than 25 µM.

For `C[C@@H]1[C@H](O)[C@@H](C)/C=C/C=C/C=C/C=C/C=C/C=C/C=C/[C@H](O[C@@H]2O[C@H](C)[C@@H](O)[C@H](N)[C@@H]2O)C[C@@H]2O[C@](O)(C[C@@H](O)C[C@@H](O)[C@H](O)CC[C@@H](O)C[C@@H](O)CC(=O)O[C@H]1C)C[C@H](O)[C@H]2C(=O)O` [amphotericin B], the MIC values in the assay with Candida species is 0.01 to 1 µM.

As to `OC(Cn1cncn1)(Cn1cncn1)c1ccc(F)cc1F` [fluconazole], the MIC values in the assay with Candida species is 0.01 to 1 µM.

`C[C@@H](O)[C@H](NC(=O)[C@@H](N)CCCNC(=N)N)C(=O)N[C@@H](CCC(=O)O)C(=O)N[C@@H](CO)C(=O)N[C@@H](Cc1ccccc1)C(=O)N1CCC[C@H]1C(=O)N[C@@H](CC(=O)O)C(=O)NCC(=O)N[C@@H](CCC(=O)O)C(=O)O` [compound 5] (H-RTESFPDGE-OH) returned an IC50 in assay [1] greater than 25 µM.

In the case of `CSCC[C@H](NC(=O)CNC(=O)[C@H](CCCCN)NC(=O)[C@H](Cc1ccccc1)NC(=O)[C@H](CCCNC(=N)N)NC(=O)[C@H](Cc1c[nH]cn1)NC(=O)[C@@H](N)CO)C(=O)N[C@@H](CS)C(=O)N[C@H](C(=O)N[C@@H](CO)C(=O)O)C(C)C` [compound 2] (H-SHRFKGMCVS-OH), in assay [1], the IC50 was 19 µM.

In assay [1], `CC(C)C[C@H](NC(=O)[C@H](CS)NC(=O)[C@H](Cc1c[nH]cn1)NC(=O)[C@@H](N)CCCNC(=N)N)C(=O)N[C@@H](CO)C(=O)N[C@@H](CCC(N)=O)C(=O)N[C@@H](CO)C(=O)N[C@@H](Cc1c[nH]cn1)C(=O)N[C@@H](CCCNC(=N)N)C(=O)N[C@@H](Cc1ccccc1)C(=O)O` [peptide 1] (H-RHCLSQSHRF-OH) registered an IC50 of 6 µM.

Turning to `CC(C)C[C@H](NC(=O)CNC(=O)[C@H](Cc1c[nH]cn1)NC(=O)[C@H](CO)NC(=O)[C@@H](N)CCCCN)C(=O)N[C@@H](CCC(=O)O)C(=O)N[C@@H](CCCNC(=N)N)C(=O)N[C@@H](CCCCN)C(=O)N[C@@H](CS)C(=O)N[C@@H](Cc1ccccc1)C(=O)O` [peptide 7] (H-KSHGLERKCF-OH), the IC50 in assay [1] turned out to be 10 µM.

Broadly, the IC50 is the concentration needed to halve the response being measured. A lower IC50 goes with greater potency.
